This note sets out measurements from US8815234B2, “Treatment of human or animal body surface infection” (Insense Limited, priority 2009, dated 2014).

For the experiment, the system named is Trichophyton rubrum. Nature of the experiment: In vitro flat bed static diffusion model, kill curves of Trichophyton rubrum. In kind it is cell-based. The following applies: for effect of peroxidase in disc at lowest concentration compared to the test treatment alone: 1 μg ml^−1 enzyme in disc plus active topical treatment; for potentiation of the effects of the topical treatment by peroxidase within the disc (words): 1, 100 and 500 μg/ml enzyme in disc plus active topical treatment; for relative potency of horseradish peroxidase versus lactoperoxidase in enhancing fungal killing (words): enzyme in disc plus active topical treatment. The procedure: Test discs were soaked in 50% serum containing 10^7 fungal cells to re-create a high protein environment. They were placed on a gel bed, also containing 50% serum to mimic contact with the nail bed. The discs were dosed with aqueous solutions of either horse radish peroxidase or lactoperoxidase, each set of discs having different dose levels of the enzymes. Control discs were left with no peroxidase of any kind. The experiment was started by applying hydrogen peroxide generating stratified patches (see below) to the surfaces of most of the test discs, and these were left in place for defined periods of time. Some discs were left uncovered as additional experimental controls to determine how well the fungal cells survived when left untreated. At set time-intervals, representative discs were removed for sampling, and the numbers of surviving fungal cells were determined by standard methods.
An in vitro flat bed static diffusion model was utilised, based upon the techniques described in “In vitro diffusion bed, 3-day repeat challenge ‘capacity’ test for antimicrobial wound dressings”, J. Greenman, R. M. S. Thorn, S. Saad, A. Austin International Wound Journal (2006), 3, 322-329.
The test inoculum was prepared by emulsifying mature surface growth biomass of Trichophyton rubrum on potato dextrose agar in Saboraud liquid medium, removing the suspension, vortex mixing, and then allowing large particles to settle out of solution. The resulting suspension was adjusted via spectrophotometry to give a standardised inoculum around 10^7 cfu ml^−1, which is sufficiently dense to enable any fungicidal effects to be detected (>10^3 cfu reduction is seen as indicative of a cidal effect).
A 100 μl volume of the defined inocula was re-suspended in replicate cellulose discs on the surface of a poly-AMPS test bed (the formulation of which is identical to the Layer 1 hydrogel as described in Example 1, but cast as a 25 g gel sheet per 10×10 cm dish), whereby test products can then be applied (FIG. 1). A two layer dressing was tested. The layers were prepared as described in Example 1. Lactoperoxidase or horse radish peroxidase enzymes were prepared by dissolving in analytical water at the required concentration prior to use. It is thought that lactoperoxidase may potentiate any antifungal effects of the novel topical treatment, and for some of the experimental systems cellulose discs were pre-treated with a lactoperoxidase or horseradish peroxidise solution to ascertain differential effects.
The two layer dressings were activated by bringing the two layers together. The hydrogel sheet was placed into contact with the cellulose disc and the dry film then applied to the uppermost surface of the hydrogel sheet. Test beds were incubated at 28° C., and at set time intervals (0, 1, 2, 4 & 24 h); cellulose discs were removed, re-suspended in PBSa, serially diluted and then spiral plated onto Saboraud dextrose agar. After incubation (5 days) the number of dermatophyte survivors at different time points after treatment exposure was determined by colony counting (cfu disc^−1). The results were graphed and analysed using GraphPad Prism (v.4).

In the case of “horseradish peroxidase [Horseradish peroxidise]”, the “effect of peroxidase in disc at lowest concentration compared to the test treatment alone” value is reported as “has a significant effect” and the “potentiation of the effects of the topical treatment by peroxidase within the disc (words)” value (shortened to “potentiation”) is given as “potentiates the effects of the topical treatment in a concentration dependent manner”. Besides, the “potentiation” value (listed as horse radish peroxidise) is recorded as “potentiate the effects of the topical treatment”. For the same substance, under “listed as horse radish peroxidase”, the “relative potency of horseradish peroxidase versus lactoperoxidase in enhancing fungal killing (words)” value was “more potent than lactoperoxidase”. In addition, the “relative potency of horseradish peroxidase versus lactoperoxidase in enhancing fungal killing (words)” value (listed as horseradish peroxidise) was “more efficacious”.
On to lactoperoxidase, for which the “effect of peroxidase in disc at lowest concentration compared to the test treatment alone” value was “no significant effect compared to the test treatment alone” and the “potentiation” value was “potentiate the effects of the topical treatment in a concentration dependant manner”. Further, the “potentiation” value (listed as peroxidise) is “potentiate the effects of the topical treatment”.
